# Test results from PubChem BioAssay (NCI).
#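 At the GI50, growth is halved. TGI is the concentration that stops growth completely.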
# Tests used:
# Experiment in all cases: NCI anticancer screen, dose series, 384-well format
# NCI-H23 lung = system: NCI-H23 lung
# NCI-H322M lung = system: NCI-H322M lung
# NCI-H460 NSCLC = system: NCI-H460 NSCLC
# NCI-H522 lung = system: NCI-H522 lung
# NCI/ADR-RES ovarian = system: NCI/ADR-RES ovarian
# OVCAR-3 ovarian = system: OVCAR-3 ovarian
# OVCAR-4 ovarian = system: OVCAR-4 ovarian
# OVCAR-5 ovarian = system: OVCAR-5 ovarian
# OVCAR-8 ovarian = system: OVCAR-8 ovarian
# PC-3 prostate = system: PC-3 prostate
# RPMI-8226 leukemia = system: RPMI-8226 leukemia
# RXF 393 renal = system: RXF 393 renal
# SF-295 CNS = system: SF-295 CNS
# SF-539 CNS = system: SF-539 CNS
# SK-MEL-2 melanoma = system: SK-MEL-2 melanoma
# SK-MEL-28 melanoma = system: SK-MEL-28 melanoma
# SK-MEL-5 melanoma = system: SK-MEL-5 melanoma
# SK-OV-3 ovarian = system: SK-OV-3 ovarian
# SN12C renal = system: SN12C renal
# SR leukemia = system: SR leukemia
# SW-620 colon = system: SW-620 colon
# T-47D breast = system: T-47D breast
# TK-10 renal = system: TK-10 renal
# U251 glioblastoma = system: U251 glioblastoma
# UACC-257 melanoma = system: UACC-257 melanoma
# UACC-62 melanoma = system: UACC-62 melanoma
# UO-31 renal = system: UO-31 renal
smiles,measurement,setting,value
CN(C(=O)c1ccc(C(F)(F)F)cc1)c1ccc(Oc2ccc3c(c2)cc(C(=O)N2CCN(Cc4ccc(OC(F)F)cc4)CC2)n3C)nc1,TGI,NCI-H23 lung,< 0.01 µM
same,GI50,NCI-H322M lung,< 0.01 µM
same,TGI,NCI-H322M lung,> 100 µM
same,GI50,NCI-H460 NSCLC,< 0.01 µM
same,TGI,NCI-H460 NSCLC,< 0.01 µM
same,GI50,NCI-H522 lung,< 0.01 µM
same,TGI,NCI-H522 lung,> 100 µM
same,GI50,NCI/ADR-RES ovarian,< 0.01 µM
same,TGI,NCI/ADR-RES ovarian,0.0671 µM
same,GI50,OVCAR-3 ovarian,3.02 µM
same,TGI,OVCAR-3 ovarian,> 100 µM
same,GI50,OVCAR-4 ovarian,< 0.01 µM
same,TGI,OVCAR-4 ovarian,> 100 µM
same,GI50,OVCAR-5 ovarian,> 100 µM
same,TGI,OVCAR-5 ovarian,> 100 µM
same,GI50,OVCAR-8 ovarian,< 0.01 µM
same,TGI,OVCAR-8 ovarian,> 100 µM
same,GI50,PC-3 prostate,3.48 µM
same,TGI,PC-3 prostate,> 100 µM
same,GI50,RPMI-8226 leukemia,< 0.01 µM
same,TGI,RPMI-8226 leukemia,< 0.01 µM
same,GI50,RXF 393 renal,< 0.01 µM
same,TGI,RXF 393 renal,< 0.01 µM
same,GI50,SF-295 CNS,0.0107 µM
same,TGI,SF-295 CNS,> 100 µM
same,GI50,SF-539 CNS,> 100 µM
same,TGI,SF-539 CNS,> 100 µM
same,GI50,SK-MEL-2 melanoma,> 100 µM
same,TGI,SK-MEL-2 melanoma,> 100 µM
same,GI50,SK-MEL-28 melanoma,> 100 µM
same,TGI,SK-MEL-28 melanoma,> 100 µM
same,GI50,SK-MEL-5 melanoma,< 0.01 µM
same,TGI,SK-MEL-5 melanoma,0.95 µM
same,GI50,SK-OV-3 ovarian,< 0.01 µM
same,TGI,SK-OV-3 ovarian,> 100 µM
same,GI50,SN12C renal,> 100 µM
same,TGI,SN12C renal,> 100 µM
same,GI50,SR leukemia,< 0.01 µM
same,TGI,SR leukemia,< 0.01 µM
same,GI50,SW-620 colon,8.11 µM
same,TGI,SW-620 colon,> 100 µM
same,GI50,T-47D breast,< 0.01 µM
same,TGI,T-47D breast,6.89 µM
same,GI50,TK-10 renal,2.97 µM
same,TGI,TK-10 renal,> 100 µM
same,GI50,U251 glioblastoma,< 0.01 µM
same,TGI,U251 glioblastoma,> 100 µM
same,GI50,UACC-257 melanoma,< 0.01 µM
same,TGI,UACC-257 melanoma,2.84 µM
same,GI50,UACC-62 melanoma,> 100 µM
same,TGI,UACC-62 melanoma,> 100 µM
same,GI50,UO-31 renal,> 100 µM
same,TGI,UO-31 renal,> 100 µM
